Experimental data reported in patent publication US8846861B2, “Peptide clearing agents” (Mologic Ltd, priority 2009, dated 2014).
Entries after “also recorded” stand apart in the source; their conditions may differ. Like-named read-outs stand apart in the source and are kept apart here.

Assays:
ScFV anti CEA-CPG2 = assay: Non-amplified Amplex Red assay for screening of potential CPG2 substrates; format: biochemical, Psuedomonas; details: for substrate potential for CPG2 (in words): Amplex Red fluorescence, CP014 12.5 and 100 μM, FIG. 10 substrate 12.5 μM
Excerpt: Non-Amplified Amplex Red Assay for the Screening of Potential CPG2 Substrates
It was established that CP014 is a potential inhibitor of CPG2 activity using a spectrophotometric assay. […] The so-called Amplex Red assay can be used to measure to measure L-glutamate in food samples and continuously monitor glutamate oxidase activity. By eliminating an amplification step in the assay procedure, it was possible to screen compounds as substrates for CPG2. In the modified assay, L-glutamic acid that has been cleaved from a substrate of CPG2 is oxidised by glutamate oxidase to produce α-ketoglutarate, ammonia and hydrogen peroxide. The hydrogen peroxide then reacts with 10-acetyl-3,7-dihydroxyphenoxazine (Amplex Red reagent) in a 1:1 stoichiometry in a reaction catalysed by horseradish peroxidise (HRP) to generate the highly fluorescent product, resorufin.
25 μM and 200 μM solutions of CP014 in assay buffer (0.1 M Tris-HCl buffer at […] containing 0.2 mM zinc chloride), and a 25 μM solution of folic acid in assay buffer were prepared. The Amplex Red reagent mixture was prepared by combining 2.5 μL 10 mM solution of Amplex Red reagent in DMSO, 5 μL HRP solution in assay buffer (100 U/mL), 32 μL L-glutamate oxidase solution in assay buffer (5 U/mL) and 460.5 μL assay buffer solution. ScFV anti CEA-CPG2 fusion protein was diluted appropriately using assay buffer.
A 50 μL aliquot of CP014 solution or 25 μM folic acid solution and a 50 μL aliquot of the Amplex Red reagent mixture were added to a well of a black microtitre plate. The plate was covered, then incubated at 37° C. for 10 minutes. The cover was removed and a 1 μL aliquot of ScFV anti CEA-CPG2 was added. After brief stirring, the plate was placed in a BMG Fluostar Omega plate reader and the fluorescence intensity was monitored over a 245 second period at 5 second intervals. The excitation filter wavelength was set at 544 nm and the emission filter wavelength was set at 590 nm.
When ScFV anti CEA-CPG2 was diluted to a concentration of approximately 2 U/mL, the slope value that was calculated for the 12.5 μM folic acid control assay was approximately 4.0.

[1] = target: CPG2 enzyme activity of ScFV anti CEA-CPG2; assay: Spectrophotometric CPG2 enzyme inhibition assay (methotrexate hydrolysis, absorbance at 320 nm); format: biochemical, Psuedomonas; details: for IC50: methotrexate substrate 60 μM, 37° C., pH 7.3; for inhibition of CPG2 activity (in words): spectrophotometric assay
Description: Enzyme Inhibition Assay Method Used for the Assessment of CP014 as an Inhibitor of CPG2 Activity
The effect that CP014 had on CPG2 activity was measured using a spectrophotometric assay. CP014 was dissolved in assay buffer (0.1 M Tris-HCl buffer at pH 7.3 containing 0.2 mM zinc chloride) to give a concentration of 40 mM. Various aliquots of this solution were added to cuvettes and assay buffer was added to adjust the volume of solution in each cuvette to 900 μL. 100 μL aliquots of 0.6 mM methotrexate solution in assay buffer were added to each cuvette to give a methotrexate substrate concentration of 0.06 mM (60 μM). The range of the concentration of CP014 in the cuvettes was 0-400 μM.
The substrate solutions in the cuvettes were heated to 37° C. in an oven. The cuvettes were then placed in turn in a spectrophotometer which was maintained at 37° C. using a Peltier. The assays were commenced by adding a 10 μL aliquot of fusion protein (ScFV anti CEA-CPG2) solution or CPG2 solution, followed by brief stirring. The hydrolysis of the methotrexate substrate was monitored by measuring the decrease in absorbance at 320 nm.
One unit (1 U) of CPG2 activity is defined as the amount of enzyme which catalyses the hydrolysis of 1 μmol of methotrexate per minute at 37° C. The molar extinction coefficient of methotrexate was taken as 8300 L mol^−1 cm^−1. For each assay a plot of absorbance versus time was created and a straight line was fitted to the data between 0 and 0.2 minutes. The slope of the straight line was then multiplied by minus 12 and the dilution factor of the ScFV anti CEA-CPG2/CPG2 solution to give the enzyme activity in U/mL.
A variation of the assay was to incubate various amounts of CP014 with ScFV anti CEA-CPG2 or CPG for a period of time at 4° C. prior to CPG2 assay. Following this incubation step, a 10 μL aliquot of each mixture was added to a cuvette that contained a 1 mL aliquot of 0.06 mM methotrexate in assay buffer at 37° C. After stirring the contents of the cuvette, the measurement of the decrease in absorbance and subsequent determination of enzyme activity were carried out as described above.
The effectiveness of CP014 in inhibiting CPG2 activity was expressed in terms of its IC50 value, i.e. the half maximal inhibitory concentration. Using GraphPad Prism 5 software, the IC50 value was determined by applying non-linear regression to a plot of enzyme activity versus the logarithm of the CP014 concentration.

[2] = test system: ScFv anti CEA-CPG2 fusion protein; assay: Binding studies using Surface Plasmon Resonance (Biacore), peptide immobilised on CM5 chip; parameters: species or system Psuedomonas
Excerpt: Peptide clearing agents of the invention are exemplified herein displaying appropriate kinetics and affinity properties. Such kinetic and affinity properties may be measured using any suitable means. Kinetic and affinity parameters may be derived based upon binding studies using Surface Plasmon Resonance (SPR), which is a well known technique (and commercially available, for example from GE Healthcare—Biacore system). Data obtained using a suitable instrument may be analysed by appropriate software to automatically derive the relevant parameters. An appropriate binding model may be applied by the software to ensure the fit to the curves is as close as possible. A chi2 value of less than 0.2 may be considered an acceptable fit.
Binding Studies Using Surface Plasmon Resonance (SPR)
Peptides were coupled to a CM5 chip using EDC/NHS chemistry as recommended by the manufacturer (GE healthcare). Analytes were made up in HBS-P buffer (0.01 M HEPES pH 7.4, 0.15 M NaCl, 0.005% v/v Surfactant P20) and injected over the surface for 180 seconds at 5 μl/min followed by a dissociation time of 300 seconds. Residual binding was removed using two 10 second injections of regeneration buffer (10 mM CHAPS, 1 mM Guanidinium hydrochloride, 2 M NaCl). Response signals and baselines were checked for consistency throughout the experiment and flow rates of 15 and 75 μl/min were tested to confirm minimal effects due to mass transport.
FIGS. 6a and 6c each show four sensorgrams overlaid. These are the blank-subtracted real time responses from injections of 12.5, 25, 50 and 100 nM ScFVanti-CEA-CPG2 over the chip surface of immobilised CP014 peptide. The data has been fitted using two different algorithms supplied in the BiaCore software (“Biaevaluation”). The first, shown in FIG. 6a, was a 1:1 binding model (Langmuir) and the second, shown in FIG. 6c, was a 2-state reaction fit. Both fits align closely to the normalised sensorgrams. […] In addition, the Chi2 values are 0.154 and 0.0882 respectively and are within the acceptable range (<0.2) for these types of calculation. For both fits the dissociation constant (binding constant KD) was in close agreement at 5 nM and 9 nM, respectively.

With CN(Cc1cnc2nc(N)nc(N)c2n1)c1ccc(C(=O)N[C@@H](CCC(=O)O)C(=O)O)cc1 [methotrexate, reference compound] as the molecule, how does the “substrate potential for CPG2 (in words)” value (ScFV anti CEA-CPG2) read?
Its value is “positive controls”.

Which results are given for Nc1ccc2ccccc2c1C(=O)N[C@@H](CCC(=O)O)C(=O)O [CP006, Amino-Naphthoic Acid (ANA)-Glutamate (Glu)]?
IC50 [1]: 88.5 µM; IC50 ([1]; listed as formula I): ~88.5 µM; inhibition of CPG2 activity (in words) [1]: is an inhibitor; affinity for the active site of CPG2 (in words) [2]: nanomolar affinity; substrate potential for CPG2 (in words) (ScFV anti CEA-CPG2): Poor Substrate; also recorded: low substrate activity; substrate potential for CPG2 (in words) (ScFV anti CEA-CPG2; listed as formula I): not acted upon as a substrate

For Nc1nc2ncc(CNc3ccc(C(=O)N[C@@H](CCC(=O)O)C(=O)O)cc3)nc2c(=O)[nH]1 [Folic acid, reference compound], which “slope of fluorescence intensity versus time” value (ScFV anti CEA-CPG2; 12.5 μM in well, ScFV anti CEA-CPG2 approximately 2 U/mL) is on record?
Its value is “approximately 4.0”.

And the “substrate potential for CPG2 (in words)” value (ScFV anti CEA-CPG2)?
The value was “positive controls”.

For C[C@@H](NC(=O)[C@@H](N)CO[C@H]1OC(CO)[C@H](O)C(O)C1O)C(=O)Nc1ccc2ccccc2c1C(=O)NC(CCC(=O)O)C(=O)O (stereo partly drawn) [CP014], which IC50 [1] is on record?
The IC50 was 110 µM.

What about the IC50 ([1]; listed as formula II) of the same molecule?
Its IC50 is ~110 µM.

And the “inhibition of CPG2 activity (in words)” value [1]?
The value was “inhibits CPG2 activity; also recorded: is an inhibitor”.

What about the “affinity for the active site of CPG2 (in words)” value [2] of the same molecule?
Its value is “nanomolar affinity”.

What about the “KA (equilibrium association constant)” value ([2]; 1:1 Langmuir fit) of the same molecule?
The value was 1.98e+08 M⁻¹.

What about the “Ka (association rate constant)” value ([2]; 1:1 Langmuir fit) of the same molecule?
Its value is 226000 M⁻¹ s⁻¹.

And the “Kd (dissociation rate constant)” value ([2]; 1:1 Langmuir fit)?
The value was 0.00114 s⁻¹.

What about the Kd ([2]; 1:1 Langmuir fit, read-out: KD (dissociation constant)) of the same molecule?
Its Kd is 0.00504 µM.

What about the Kd ([2]; 1:1 Langmuir fit, read-out: dissociation constant (binding constant KD)) of the same molecule?
Its Kd is 0.005 µM.

And the “K (equilibrium association constant)” value ([2]; 2 state reaction fit)?
The value was 1.09e+08 M⁻¹.

What about the ka1 ([2]; 2 state reaction fit) of the same molecule?
The ka1 was 284000 M⁻¹ s⁻¹.

And the ka2 ([2]; 2 state reaction fit)?
Its ka2 is 0.014 s⁻¹.

And the kd1 ([2]; 2 state reaction fit)?
The kd1 was 0.0258 s⁻¹.

What about the kd2 ([2]; 2 state reaction fit) of the same molecule?
The kd2 was 0.00158 s⁻¹.

What about the Kd ([2]; 2 state reaction fit, read-out: dissociation constant (binding constant KD)) of the same molecule?
Its Kd is 0.009 µM.

What about the “slope of fluorescence intensity versus time, against negative control (in words)” value (ScFV anti CEA-CPG2; 12.5 and 100 μM in the plate well) of the same molecule?
Its value is “no greater than that of the negative control sample”.

And the “substrate potential for CPG2 (in words)” value (ScFV anti CEA-CPG2)?
The value was “not a substrate; also recorded: not altered or used as a substrate; also recorded: not turned over”.

What about the “substrate potential for CPG2 (in words)” value (ScFV anti CEA-CPG2; listed as formula II) of the same molecule?
Its value is “not acted upon as a substrate”.
